Assay results as given in patent US11793849B2, “Method of Chinese herbal medicine extract used for treating multiple diseases caused by drug resistant bacteria infection” (priority 2016, dated 2023).
≈ marks a conversion by molar mass, not a printed value. Read-outs that look alike come from different tables or passages of the source.

Test system: MDRPA
Assay: MIC determination, microdilution broth method;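 note: broth microdilution per NCCLS recommendations, testing Pithecellobium clypearia water or ethanol extracts against multidrug-resistant Pseudomonas aeruginosa, with MIC50 and MIC90 derived statistically from individual MICs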
[1] = 20 MDRPAs, EA = 60% ethanol extract
[2] = 20 MDRPAs, EA = 95% ethanol extract
[3] = MDRPAs P1-P20, single use, EA=P. clypearia 10% ethanol extract
[4] = MDRPAs P1-P20, single use, EA=P. clypearia water extract
[5] = Pseudomonas aeruginosa, read-out: MIC (single use), strain P1, EA=P. clypearia 10% ethanol extract
[6] = Pseudomonas aeruginosa, read-out: MIC (single use), strain P1, EA=P. clypearia water extract
[7] = Pseudomonas aeruginosa, read-out: MIC (single use), strain P2, EA=P. clypearia 10% ethanol extract
[8] = Pseudomonas aeruginosa, read-out: MIC (single use), strain P2, EA=P. clypearia water extract
[9] = Pseudomonas aeruginosa, read-out: MIC (single use), strain P3, EA=P. clypearia 10% ethanol extract
[10] = Pseudomonas aeruginosa, read-out: MIC (single use), strain P3, EA=P. clypearia water extract
[11] = Pseudomonas aeruginosa, read-out: MIC (single use), strain P4, EA=P. clypearia 10% ethanol extract
[12] = Pseudomonas aeruginosa, read-out: MIC (single use), strain P4, EA=P. clypearia water extract
[13] = Pseudomonas aeruginosa, read-out: MIC (single use), strain P5, EA=P. clypearia 10% ethanol extract
[14] = Pseudomonas aeruginosa, read-out: MIC (single use), strain P5, EA=P. clypearia water extract
[15] = Pseudomonas aeruginosa, read-out: MIC (single use), strain P6, EA=P. clypearia 10% ethanol extract
[16] = Pseudomonas aeruginosa, read-out: MIC (single use), strain P6, EA=P. clypearia water extract
[17] = Pseudomonas aeruginosa, read-out: MIC (single use), strain P7, EA=P. clypearia 10% ethanol extract
[18] = Pseudomonas aeruginosa, read-out: MIC (single use), strain P7, EA=P. clypearia water extract
[19] = Pseudomonas aeruginosa, read-out: MIC (single use), strain P8, EA=P. clypearia 10% ethanol extract
[20] = Pseudomonas aeruginosa, read-out: MIC (single use), strain P8, EA=P. clypearia water extract
[21] = Pseudomonas aeruginosa, read-out: MIC (single use), strain P9, EA=P. clypearia 10% ethanol extract
[22] = Pseudomonas aeruginosa, read-out: MIC (single use), strain P9, EA=P. clypearia water extract
[23] = Pseudomonas aeruginosa, read-out: MIC (single use), strain P10, EA=P. clypearia 10% ethanol extract
[24] = Pseudomonas aeruginosa, read-out: MIC (single use), strain P10, EA=P. clypearia water extract
[25] = Pseudomonas aeruginosa, read-out: MIC (single use), strain P11, EA=P. clypearia 10% ethanol extract
[26] = Pseudomonas aeruginosa, read-out: MIC (single use), strain P11, EA=P. clypearia water extract
[27] = Pseudomonas aeruginosa, read-out: MIC (single use), strain P12, EA=P. clypearia 10% ethanol extract
[28] = Pseudomonas aeruginosa, read-out: MIC (single use), strain P12, EA=P. clypearia water extract
[29] = Pseudomonas aeruginosa, read-out: MIC (single use), strain P13, EA=P. clypearia 10% ethanol extract
[30] = Pseudomonas aeruginosa, read-out: MIC (single use), strain P13, EA=P. clypearia water extract
[31] = Pseudomonas aeruginosa, read-out: MIC (single use), strain P14, EA=P. clypearia 10% ethanol extract
[32] = Pseudomonas aeruginosa, read-out: MIC (single use), strain P14, EA=P. clypearia water extract
[33] = Pseudomonas aeruginosa, read-out: MIC (single use), strain P15, EA=P. clypearia 10% ethanol extract
[34] = Pseudomonas aeruginosa, read-out: MIC (single use), strain P15, EA=P. clypearia water extract
[35] = Pseudomonas aeruginosa, read-out: MIC (single use), strain P16, EA=P. clypearia 10% ethanol extract
[36] = Pseudomonas aeruginosa, read-out: MIC (single use), strain P16, EA=P. clypearia water extract
[37] = Pseudomonas aeruginosa, read-out: MIC (single use), strain P17, EA=P. clypearia 10% ethanol extract
[38] = Pseudomonas aeruginosa, read-out: MIC (single use), strain P17, EA=P. clypearia water extract
[39] = Pseudomonas aeruginosa, read-out: MIC (single use), strain P18, EA=P. clypearia 10% ethanol extract
[40] = Pseudomonas aeruginosa, read-out: MIC (single use), strain P18, EA=P. clypearia water extract
[41] = Pseudomonas aeruginosa, read-out: MIC (single use), strain P19, EA=P. clypearia 10% ethanol extract
[42] = Pseudomonas aeruginosa, read-out: MIC (single use), strain P19, EA=P. clypearia water extract
[43] = Pseudomonas aeruginosa, read-out: MIC (single use), strain P20, EA=P. clypearia 10% ethanol extract
[44] = Pseudomonas aeruginosa, read-out: MIC (single use), strain P20, EA=P. clypearia water extract
[45] = single use, 20 MDRPAs, section of the 10% ethanol extract
[46] = single use, 20 MDRPAs, section of the 60% ethanol extract
[47] = single use, 20 MDRPAs, section of the 95% ethanol extract

CCN1CCN(C(=O)N[C@@H](C(=O)N[C@@H]2C(=O)N3C(C(=O)O)=C(CSc4nnnn4C)CS[C@H]23)c2ccc(O)cc2)C(=O)C1=O [CFP, Cefoperazone]
MIC50 [1]: 64 µg/mL (≈ 99.1 µM)
MIC90 [1]: 512 µg/mL (≈ 793 µM)
MIC Range [1]: 8 to 512 µg/mL
MIC50 [2]: 64 µg/mL (≈ 99.1 µM)
MIC90 [2]: 512 µg/mL (≈ 793 µM)
MIC Range [2]: 8 to 512 µg/mL
MIC50 [3]: 64 µg/mL (≈ 99.1 µM)
MIC90 [3]: 512 µg/mL (≈ 793 µM)
MIC Range [3]: 8 to 512 µg/mL
MIC50 [4]: 64 µg/mL (≈ 99.1 µM)
MIC90 [4]: 512 µg/mL (≈ 793 µM)
MIC Range [4]: 8 to 512 µg/mL
MIC50 (Pseudomonas aeruginosa): 64 µg/mL (≈ 99.1 µM)
MIC90 (Pseudomonas aeruginosa): 512 µg/mL (≈ 793 µM)
MIC [5]: 128 µg/mL (≈ 198 µM)
MIC [6]: 128 µg/mL (≈ 198 µM)
MIC [7]: 256 µg/mL (≈ 396 µM)
MIC [8]: 256 µg/mL (≈ 396 µM)
MIC [9]: 16 µg/mL (≈ 24.8 µM)
MIC [10]: 16 µg/mL (≈ 24.8 µM)
MIC [11]: 8 µg/mL (≈ 12.4 µM)
MIC [12]: 8 µg/mL (≈ 12.4 µM)
MIC [13]: 512 µg/mL (≈ 793 µM)
MIC [14]: 512 µg/mL (≈ 793 µM)
MIC [15]: 512 µg/mL (≈ 793 µM)
MIC [16]: 512 µg/mL (≈ 793 µM)
MIC [17]: 512 µg/mL (≈ 793 µM)
MIC [18]: 512 µg/mL (≈ 793 µM)
MIC [19]: 16 µg/mL (≈ 24.8 µM)
MIC [20]: 16 µg/mL (≈ 24.8 µM)
MIC [21]: 64 µg/mL (≈ 99.1 µM)
MIC [22]: 64 µg/mL (≈ 99.1 µM)
MIC [23]: 8 µg/mL (≈ 12.4 µM)
MIC [24]: 8 µg/mL (≈ 12.4 µM)
MIC [25]: 8 µg/mL (≈ 12.4 µM)
MIC [26]: 8 µg/mL (≈ 12.4 µM)
MIC [27]: 512 µg/mL (≈ 793 µM)
MIC [28]: 512 µg/mL (≈ 793 µM)
MIC [29]: 256 µg/mL (≈ 396 µM)
MIC [30]: 256 µg/mL (≈ 396 µM)
MIC [31]: 8 µg/mL (≈ 12.4 µM)
MIC [32]: 8 µg/mL (≈ 12.4 µM)
MIC [33]: 64 µg/mL (≈ 99.1 µM)
MIC [34]: 64 µg/mL (≈ 99.1 µM)
MIC [35]: > 512 µg/mL
MIC [36]: > 512 µg/mL
MIC [37]: 16 µg/mL (≈ 24.8 µM)
MIC [38]: 16 µg/mL (≈ 24.8 µM)
MIC [39]: 256 µg/mL (≈ 396 µM)
MIC [40]: 256 µg/mL (≈ 396 µM)
MIC [41]: 64 µg/mL (≈ 99.1 µM)
MIC [42]: 64 µg/mL (≈ 99.1 µM)
MIC [43]: > 512 µg/mL
MIC [44]: > 512 µg/mL
MIC50 [45]: 64 µg/mL (≈ 99.1 µM)
MIC90 [45]: 512 µg/mL (≈ 793 µM)
MIC50 [46]: 64 µg/mL (≈ 99.1 µM)
MIC90 [46]: 512 µg/mL (≈ 793 µM)
MIC50 [47]: 64 µg/mL (≈ 99.1 µM)
MIC90 [47]: 512 µg/mL (≈ 793 µM)
MIC (single use) (strain P16, EA=P. clypearia 10% ethanol extract): 1024 µg/mL (≈ 1590 µM)
MIC (single use) (strain P16, EA=P. clypearia water extract): 1024 µg/mL (≈ 1590 µM)
MIC (single use) (strain P20, EA=P. clypearia 10% ethanol extract): 1024 µg/mL (≈ 1590 µM)
MIC (single use) (strain P20, EA=P. clypearia water extract): 1024 µg/mL (≈ 1590 µM)

CC(C)(O/N=C(\C(=O)N[C@@H]1C(=O)N2C(C(=O)[O-])=C(C[n+]3ccccc3)CS[C@H]12)c1csc(N)n1)C(=O)O [CAZ, Ceftazidime]
MIC50 [1]: 32 µg/mL (≈ 58.5 µM)
MIC90 [1]: 256 µg/mL (≈ 468 µM)
MIC Range [1]: 2 to 512 µg/mL
MIC50 [2]: 32 µg/mL (≈ 58.5 µM)
MIC90 [2]: 256 µg/mL (≈ 468 µM)
MIC Range [2]: 2 to 512 µg/mL
MIC50 [3]: 32 µg/mL (≈ 58.5 µM)
MIC90 [3]: 256 µg/mL (≈ 468 µM)
MIC Range [3]: 2 to 512 µg/mL
MIC50 [4]: 32 µg/mL (≈ 58.5 µM)
MIC90 [4]: 256 µg/mL (≈ 468 µM)
MIC Range [4]: 2 to 512 µg/mL
MIC50 (Pseudomonas aeruginosa): 32 µg/mL (≈ 58.5 µM)
MIC90 (Pseudomonas aeruginosa): 256 µg/mL (≈ 468 µM)
MIC [5]: 32 µg/mL (≈ 58.5 µM)
MIC [6]: 32 µg/mL (≈ 58.5 µM)
MIC [7]: 64 µg/mL (≈ 117 µM)
MIC [8]: 64 µg/mL (≈ 117 µM)
MIC [9]: 4 µg/mL (≈ 7.32 µM)
MIC [10]: 4 µg/mL (≈ 7.32 µM)
MIC [11]: 256 µg/mL (≈ 468 µM)
MIC [12]: 256 µg/mL (≈ 468 µM)
MIC [13]: 64 µg/mL (≈ 117 µM)
MIC [14]: 64 µg/mL (≈ 117 µM)
MIC [15]: 512 µg/mL (≈ 937 µM)
MIC [16]: 512 µg/mL (≈ 937 µM)
MIC [17]: 64 µg/mL (≈ 117 µM)
MIC [18]: 64 µg/mL (≈ 117 µM)
MIC [19]: 256 µg/mL (≈ 468 µM)
MIC [20]: 256 µg/mL (≈ 468 µM)
MIC [21]: 8 µg/mL (≈ 14.6 µM)
MIC [22]: 8 µg/mL (≈ 14.6 µM)
MIC [23]: 4 µg/mL (≈ 7.32 µM)
MIC [24]: 4 µg/mL (≈ 7.32 µM)
MIC [25]: 2 µg/mL (≈ 3.66 µM)
MIC [26]: 2 µg/mL (≈ 3.66 µM)
MIC [27]: 64 µg/mL (≈ 117 µM)
MIC [28]: 64 µg/mL (≈ 117 µM)
MIC [29]: 16 µg/mL (≈ 29.3 µM)
MIC [30]: 16 µg/mL (≈ 29.3 µM)
MIC [31]: 16 µg/mL (≈ 29.3 µM)
MIC [32]: 16 µg/mL (≈ 29.3 µM)
MIC [33]: 256 µg/mL (≈ 468 µM)
MIC [34]: 256 µg/mL (≈ 468 µM)
MIC [35]: 32 µg/mL (≈ 58.5 µM)
MIC [36]: 32 µg/mL (≈ 58.5 µM)
MIC [37]: 32 µg/mL (≈ 58.5 µM)
MIC [38]: 32 µg/mL (≈ 58.5 µM)
MIC [39]: 64 µg/mL (≈ 117 µM)
MIC [40]: 64 µg/mL (≈ 117 µM)
MIC [41]: 4 µg/mL (≈ 7.32 µM)
MIC [42]: 4 µg/mL (≈ 7.32 µM)
MIC [43]: 256 µg/mL (≈ 468 µM)
MIC [44]: 256 µg/mL (≈ 468 µM)
MIC50 [45]: 32 µg/mL (≈ 58.5 µM)
MIC90 [45]: 256 µg/mL (≈ 468 µM)
MIC50 [46]: 32 µg/mL (≈ 58.5 µM)
MIC90 [46]: 256 µg/mL (≈ 468 µM)
MIC50 [47]: 32 µg/mL (≈ 58.5 µM)
MIC90 [47]: 256 µg/mL (≈ 468 µM)
